Reference: ChEMBL document CHEMBL1201862, “PubChem BioAssay data set” (2004)
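96-well plates; 48 h exposure; 5 concentrations. Endpoints by linear interpolation between flanking doses. Not reached: highest tested concentration assigned. GI50 marks 50% less growth.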 Active and inactive are the calls of the source. Cut-off read from the data, not from the text of the source: active = GI50 up to about 1.1 µM and inactive = higher.

Assays:
Test in all cases: DTP human tumour cell line panel, 48 h
[1] = tested on: 786-0
[2] = tested on: CCRF-CEM
[3] = tested on: HOP-62
[4] = tested on: IGROV-1
[5] = tested on: Malme-3M
[6] = tested on: NCI-H23
[7] = tested on: NCI/ADR-RES
[8] = tested on: OVCAR-3
[9] = tested on: OVCAR-8
[10] = tested on: RXF 393
[11] = tested on: SF-268
[12] = tested on: SK-MEL-5
[13] = tested on: SN12C
[14] = tested on: SNB-19
[15] = tested on: SNB-75
[16] = tested on: SR
[17] = tested on: UACC-62
[18] = tested on: HL-60
[19] = tested on: K562
[20] = tested on: RPMI-8226

Measured: GI50

O=C(Nc1ccc(Cl)c(Cl)c1)C(=O)C(C1OC(=O)c2ccccc21)[N+](=O)[O-] (stereo not given)
inactive: [1] > 100 µM | [2] > 100 µM | [3] > 100 µM | [4] > 100 µM | [5] > 100 µM | [6] > 100 µM | [7] > 100 µM | [8] > 100 µM | [9] > 100 µM | [10] 95.1 µM | [11] > 100 µM | [12] > 100 µM | [13] > 100 µM | [14] > 100 µM | [15] > 100 µM | [16] > 100 µM | [17] > 100 µM

O=C(c1ccccc1)N1N=C(C(F)(F)F)CC1(O)C(F)(F)F (stereo not given)
inactive: [1] > 100 µM | [2] > 100 µM | [18] > 100 µM | [3] > 100 µM | [19] > 100 µM | [5] > 100 µM | [6] > 100 µM | [7] > 100 µM | [8] > 100 µM | [9] > 100 µM | [20] > 100 µM | [11] > 100 µM | [13] > 100 µM | [14] > 100 µM | [15] > 100 µM | [16] > 100 µM

O=c1cn[nH]c(=S)n1/N=C/c1c[nH]c2ccccc12
inactive: [1] > 100 µM | [2] 11.3 µM | [18] 14.5 µM | [3] 49.3 µM | [19] 48 µM | [5] > 100 µM | [7] > 100 µM | [8] > 100 µM | [9] 32.8 µM | [20] 49.5 µM | [11] > 100 µM | [12] > 100 µM | [14] > 100 µM | [16] 45.3 µM | [17] 78.7 µM
active: [4] 0.564 µM

COc1ncc(C#CC(=O)c2ccccc2)c(OC)n1
inactive: [1] 2.04 µM | [18] 1.23 µM | [3] 19.3 µM | [4] 2.1 µM | [5] 1.67 µM | [6] 4.33 µM | [7] 2.72 µM | [8] 5.11 µM | [9] 2.78 µM | [20] 2.33 µM | [10] 1.85 µM | [11] 10.4 µM | [12] 2.09 µM | [13] 1.4 µM | [14] 15.8 µM | [15] 5.2 µM | [17] 4.03 µM
active: [2] 0.183 µM | [19] 0.726 µM

Cc1ccccc1NC(=O)/C(C#N)=N\Nc1[nH]cnc1C(N)=O
inactive: [1] 19.3 µM | [2] 2.96 µM | [18] > 100 µM | [3] 6.12 µM | [4] 4.88 µM | [19] 1.89 µM | [5] 4.62 µM | [6] 32.6 µM | [7] 2.45 µM | [8] 2.42 µM | [9] 1.51 µM | [20] 1.83 µM | [10] 15.3 µM | [11] 4.11 µM | [12] 35.3 µM | [13] 5 µM | [14] > 100 µM | [15] 54.5 µM | [17] 12.9 µM

O=C(O)CCNC(=O)c1cc(N(CCBr)CCBr)c([N+](=O)[O-])cc1[N+](=O)[O-]
inactive: [1] > 100 µM | [2] > 100 µM | [18] > 100 µM | [3] > 100 µM | [4] > 100 µM | [19] > 100 µM | [5] > 100 µM | [6] > 100 µM | [7] > 100 µM | [8] > 100 µM | [9] > 100 µM | [20] > 100 µM | [11] > 100 µM | [12] > 100 µM | [13] > 100 µM | [14] > 100 µM | [15] > 100 µM | [16] > 100 µM
